Results published in US8975417B2, “Pyrazolopyrrolidine derivatives and their use in the treatment of disease” (Novartis AG, priority 2013, dated 2015).

How the values were obtained:
[1] = target: nuclear BRD4-NUT foci in HCC2494 NUT midline carcinoma cells (Homo sapiens (Human), UniProt O60885+Q86Y26); experiment: Nut-foci formation assay; type: cell-based; details: 24 hours, read-out: HCS Brd4-NUT IC50
Outline: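 Read-out is number and intensity of nuclear NUT foci by immunofluorescence imaging, relative to 0.1% DMSO set as 100. Compounds were tested as 3-fold series starting at 10 μM on HCC2494 NUT midline carcinoma cells for 24 h. Four-parameter fitting gave IC50.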

[2] = target: His-Brd4(44-477) (Homo sapiens (Human), UniProt O60885); experiment: TR-FRET in-vitro binding assay for BRD4; details: biochemical
Outline: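 Assay buffer HEPES pH 7.5/NaCl/Tween20/BSA; protein solution 45 nM, peptide solution 60 nM acetyl-H4 (AcK5,8,12,16). Incubated 30 °C for 35 min; Eu-anti-His6 and SA-APC detection, TR-FRET read.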

[3] = target: His-CREBBP (1081-1197) bromodomain (Homo sapiens (Human), UniProt Q92793); experiment: AlphaScreen in-vitro binding assay for CREBBP; details: biochemical
Chain of His-CREBBP (1081-1197) bromodomain (Q92793 1081-1197): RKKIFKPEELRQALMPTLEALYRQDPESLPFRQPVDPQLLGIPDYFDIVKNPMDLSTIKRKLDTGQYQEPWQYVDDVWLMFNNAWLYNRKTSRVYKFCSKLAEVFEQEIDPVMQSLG
Outline: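 Ni-chelate acceptor and streptavidin donor beads (45 µg/mL each, in 50 mM HEPES pH 7.5, 150 mM NaCl, 0.02% BSA) were then added for 60 min at room temperature. IC50 came from 8-point non-linear regression.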

| IC50 [1] [nM] | IC50 [2] [nM] | IC50 [3] [nM] | SMILES |
| --- | --- | --- | --- |
| 6.42 | 12 | > 37000 | Cc1nn(C2CC2)c2c1C(c1ccc(Cl)cc1)N(c1cc(C)c3nnn(C)c3n1)C2=O (stereo not drawn) [Example 110, 4-(4-chlorophenyl)-1-cyclopropyl-5-(3,7-dimethyl-3H-[1,2,3]triazolo[4,5-b]pyridin-5-yl)-3-methyl-4,5-dihydropyrrolo[3,4-c]pyrazol-6(1H)-one] |
| 34.3 | 17 | 29700 | COc1ncccc1-n1nc(C)c2c1C(=O)N(c1cc(C)c3nnc(C)n3n1)C2c1ccc(Cl)cc1 (stereo not drawn) [Example 111, 4-(4-chlorophenyl)-5-(3,8-dimethyl-[1,2,4]triazolo[4,3-b]pyridazin-6-yl)-1-(2-methoxypyridin-3-yl)-3-methyl-4,5-dihydropyrrolo[3,4-c]pyrazol-6(1H)-one] |
| 3350 | > 37000 | > 37000 | Cc1nn(C2CC2)c2c1C(c1ccc(Cl)cc1)N(c1cc(N(C)C(=O)OC(C)(C)C)c3nnc(C)n3n1)C2=O (stereo not drawn) [Example 112, tert-butyl (6-(4-(4-chlorophenyl)-1-cyclopropyl-3-methyl-6-oxopyrrolo[3,4-c]pyrazol-5(1H,4H,6H)-yl)-3-methyl-[1,2,4]triazolo[4,3-b]pyridazin-8-yl)(methyl)carbamate] |
| 23.2 | 27 | > 37000 | Cc1nn(-c2ccnn2C)c2c1C(c1ccc(Cl)cc1)N(c1cc(C)c3nnc(C)n3n1)C2=O (stereo not drawn) [Example 114, 4-(4-chlorophenyl)-5-(3,8-dimethyl-[1,2,4]triazolo[4,3-b]pyridazin-6-yl)-3-methyl-1-(1-methyl-1H-pyrazol-5-yl)-4,5-dihydropyrrolo[3,4-c]pyrazol-6(1H)-one] |
| 39.7 | 43 | 1200 | CCn1nc2c(c1C)C(c1ccc(Cl)cc1)N(c1cc(C)c3nnc(C)n3c1)C2=O (stereo not drawn) [Example 115, 4-(4-chlorophenyl)-5-(3,8-dimethyl-[1,2,4]triazolo[4,3-a]pyridin-6-yl)-2-ethyl-3-methyl-4,5-dihydropyrrolo[3,4-c]pyrazol-6(2H)-one] |
| 27 | 32 | 15000 | CCn1nc(C)c2c1C(=O)N(c1cc(C)c3nnc(C)n3c1)C2c1ccc(Cl)cc1 (stereo not drawn) [Example 116, 4-(4-chlorophenyl)-5-(3,8-dimethyl-[1,2,4]triazolo[4,3-a]pyridin-6-yl)-1-ethyl-3-methyl-4,5-dihydropyrrolo[3,4-c]pyrazol-6(1H)-one] |
| 24.3 | 39 | > 37000 | Cc1cc(N2C(=O)c3c(c(C4CC4)nn3-c3ccnn3C)C2c2ccc(Cl)cc2)cn2c(C)nnc12 (stereo not drawn) [Example 117, 4-(4-chlorophenyl)-3-cyclopropyl-5-(3,8-dimethyl-[1,2,4]triazolo[4,3-a]pyridin-6-yl)-1-(1-methyl-1H-pyrazol-5-yl)-4,5-dihydropyrrolo[3,4-c]pyrazol-6(1H)-one] |
| 65.4 | 55 | 4300 | Cc1nn(-c2ccnn2C)c2c1[C@@H](c1ccc(Cl)cc1)N(c1cc(C)c(=O)n(C)c1)C2=O [Example 120, (R)-4-(4-chlorophenyl)-5-(1,5-dimethyl-6-oxo-1,6-dihydropyridin-3-yl)-3-methyl-1-(1-methyl-1H-pyrazol-5-yl)-4,5-dihydropyrrolo[3,4-c]pyrazol-6(1H)-one] |
| 6110 | 4000 | > 37000 | Cc1nn(-c2ccnn2C)c2c1[C@H](c1ccc(Cl)cc1)N(c1cc(C)c(=O)n(C)c1)C2=O [Example 121, (S)-4-(4-chlorophenyl)-5-(1,5-dimethyl-6-oxo-1,6-dihydropyridin-3-yl)-3-methyl-1-(1-methyl-1H-pyrazol-5-yl)-4,5-dihydropyrrolo[3,4-c]pyrazol-6(1H)-one] |
| 7.3 | < 11 | > 37000 | Cc1nn(C2CC2)c2c1[C@@H](c1ccc(Cl)cc1)N(c1cc(C)c3nnc(C)n3n1)C2=O [Example 122, (R)-4-(4-chlorophenyl)-1-cyclopropyl-5-(3,8-dimethyl-[1,2,4]triazolo[4,3-b]-pyridazin-6-yl)-3-methyl-4,5-dihydropyrrolo[3,4-c]pyrazol-6(1H)-one] |
| 587 | 1100 | > 37000 | CC(=O)Nc1cc(N2C(=O)c3c(c(C)nn3C3CC3)C2c2ccc(Cl)cc2)nn2c(C)nnc12 (stereo not drawn) [Example 126, N-(6-(4-(4-chlorophenyl)-1-cyclopropyl-3-methyl-6-oxopyrrolo[3,4-c]pyrazol-5-(1H,4H,6H)-yl)-3-methyl-[1,2,4]triazolo[4,3-b]pyridazin-8-yl)acetamide] |
| > 10000 | 5700 | > 37000 | COc1ncccc1-n1nc(C)c2c1C(=O)N(c1cc(C)c(=O)n(C)c1)[C@H]2c1ccc(Cl)cc1 [Example 127, (S)-4-(4-chlorophenyl)-5-(1,5-dimethyl-6-oxo-1,6-dihydropyridin-3-yl)-1-(2-methoxypyridin-3-yl)-3-methyl-4,5-dihydropyrrolo[3,4-c]pyrazol-6(1H)-one] |
| 53.3 | 36 | 3700 | COc1ncccc1-n1nc(C)c2c1C(=O)N(c1cc(C)c(=O)n(C)c1)[C@@H]2c1ccc(Cl)cc1 [Example 128, (R)-4-(4-chlorophenyl)-5-(1,5-dimethyl-6-oxo-1,6-dihydropyridin-3-yl)-1-(2-methoxypyridin-3-yl)-3-methyl-4,5-dihydropyrrolo[3,4-c]pyrazol-6(1H)-one] |
| 13.9 | 42 | 19000 | COCc1nn(C2CC2)c2c1C(c1ccc(Cl)cc1)N(c1cc(C)c3nnc(C)n3c1)C2=O (stereo not drawn) [Example 130, 4-(4-chlorophenyl)-1-cyclopropyl-5-(3,8-dimethyl-[1,2,4]triazolo[4,3-a]pyridin-6-yl)-3-(methoxymethyl)-4,5-dihydropyrrolo[3,4-c]pyrazol-6(1H)-one] |
| 27.7 | 36 | 30000 | Cc1cc(N2C(=O)c3c(c(CO)nn3C3CC3)C2c2ccc(Cl)cc2)cn2c(C)nnc12 (stereo not drawn) [Example 131, 4-(4-chlorophenyl)-1-cyclopropyl-5-(3,8-dimethyl-[1,2,4]triazolo[4,3-a]pyridin-6-yl)-3-(hydroxymethyl)-4,5-dihydropyrrolo[3,4-c]pyrazol-6(1H)-one] |
| 93.4 | 140 | > 37000 | Cc1nn(C2COC2)c2c1C(c1ccc(Cl)cc1)N(c1cc(C)c(=O)n(C)c1)C2=O (stereo not drawn) [Example 135, 4-(4-chlorophenyl)-5-(1,5-dimethyl-6-oxo-1,6-dihydropyridin-3-yl)-3-methyl-1-(oxetan-3-yl)-4,5-dihydropyrrolo[3,4-c]pyrazol-6(1H)-one] |
| 92.8 | 110 | 4300 | Cc1cc(N2C(=O)c3nn(C4COC4)c(C)c3C2c2ccc(Cl)cc2)cn2c(C)nnc12 (stereo not drawn) [Example 136, 4-(4-chlorophenyl)-5-(3,8-dimethyl-[1,2,4]triazolo[4,3-a]pyridin-6-yl)-3-methyl-2-(oxetan-3-yl)-4,5-dihydropyrrolo[3,4-c]pyrazol-6(2H)-one] |
| 57.7 | 80 | > 37000 | Cc1nn(C2COC2)c2c1C(c1ccc(Cl)cc1)N(c1cc(C)c3nnc(C)n3c1)C2=O (stereo not drawn) [Example 137, 4-(4-chlorophenyl)-5-(3,8-dimethyl-[1,2,4]triazolo[4,3-a]pyridin-6-yl)-3-methyl-1-(oxetan-3-yl)-4,5-dihydropyrrolo[3,4-c]pyrazol-6(1H)-one] |
| 231 | 170 | 1500 | Cc1cc(N2C(=O)c3nn(C(=O)N(C)C)c(C)c3C2c2ccc(Cl)cc2)cn(C)c1=O (stereo not drawn) [Example 141, 4-(4-chlorophenyl)-5-(1,5-dimethyl-6-oxo-1,6-dihydropyridin-3-yl)-N,N,3-trimethyl-6-oxo-5,6-dihydropyrrolo[3,4-c]pyrazole-2(4H)-carboxamide] |

| SMILES | IC50 [1] [nM] | IC50 [2] [nM] | IC50 [3] [nM] |
| --- | --- | --- | --- |
| Cc1nn(-c2ccnn2C)c2c1[C@H](c1ccc(Cl)cc1)N(c1cc(C)c3nnc(C)n3c1)C2=O [Example 124, (S)-4-(4-chlorophenyl)-5-(3,8-dimethyl-[1,2,4]triazolo[4,3-a]pyridin-6-yl)-3-methyl-1-(1-methyl-1H-pyrazol-5-yl)-4,5-dihydropyrrolo[3,4-c]pyrazol-6(1H)-one] | 1730 | 25000 | > 37000 |
| Cc1nn(-c2ccnn2C)c2c1[C@@H](c1ccc(Cl)cc1)N(c1cc(C)c3nnc(C)n3c1)C2=O [Example 125, (R)-4-(4-chlorophenyl)-5-(3,8-dimethyl-[1,2,4]triazolo[4,3-a]pyridin-6-yl)-3-methyl-1-(1-methyl-1H-pyrazol-5-yl)-4,5-dihydropyrrolo[3,4-c]pyrazol-6(1H)-one] | 32.3 | 25 | 21000 |
| Cc1nn(C2CN(C)C2)c2c1C(c1ccc(Cl)cc1)N(c1cc(C)c(=O)n(C)c1)C2=O (stereo not drawn) [Example 140, 4-(4-chlorophenyl)-5-(1,5-dimethyl-6-oxo-1,6-dihydropyridin-3-yl)-3-methyl-1-(1-methylazetidin-3-yl)-4,5-dihydropyrrolo[3,4-c]pyrazol-6(1H)-one] | 435 | 320 | 15000 |
| Cc1nn(C(=O)N(C)C)c2c1C(c1ccc(Cl)cc1)N(c1cc(C)c(=O)n(C)c1)C2=O (stereo not drawn) [Example 142, 4-(4-chlorophenyl)-5-(1,5-dimethyl-6-oxo-1,6-dihydropyridin-3-yl)-N,N,3-trimethyl-6-oxo-5,6-dihydropyrrolo[3,4-c]pyrazole-1(4H)-carboxamide] | 149 | 190 | 4600 |
